Data: patent US11117876B2, “Crystalline form of ozanimod hydrochloride, and processes for preparation thereof” (RECEPTOS, LLC, priority 2017, dated 2021)
Entries after “also recorded” stand apart in the source; their conditions may differ. Counter-ions that a name gives are not always drawn.

Tests used:
Type in all cases: physicochemical
[1] = Long-term and accelerated stability of Form CS2 (XRPD and HPLC purity after storage); conditions: 7 weeks, open dish, hydrochloride
Excerpt: X-ray powder diffraction pattern in the present disclosure was acquired by a Panalytical Empyrean X-ray powder diffractometer. The parameters of the X-ray powder diffraction method of the present disclosure were as follows: • X-ray Reflection: Cu, Kα. • Kα1 (Å): 1.540598; Kα2 (ÅA): 1.544426 • Kα2/Kα1 intensity ratio: 0.50 • Voltage: 45 (kV) • Current: 40 (mA) • Scan range: from 3.0 to 40.0 degree
High Performance Liquid Chromatography (HPLC) data for purity test in example 4 of the present disclosure were collected from an Agilent 1260 with UV Variable Wavelength Detector (VWD). The HPLC method parameters are as follows: • Column: Waters XBridge C18 150×4.6 mm, 5 μm • Mobile Phase: A: 0.1% TFA in H2O • B: 0.1% TFA in Acetonitrile
• Flow rate: 1.0 mL/min • Injection Volume: 10 μL • Detection wavelength: 270 nm • Column Temperature: 40° C. • Diluent: MeOH/THF (v/v, 6/4)
Three solid samples of Form CS2 were stored under the conditions of 25° C./60% RH, 40° C./75% RH and 60° C./75% RH for 7 weeks in open dishes. XRPD of the samples was tested and the physical stability results are shown in FIG. 7 (from top to bottom: XRPD pattern of Form CS2 before and after being stored under the conditions of 25° C./60% RH, 40° C./75% RH and 60° C./75% RH for 7 weeks). Chemical purity of Form CS2 was tested after stored under the conditions of 25° C./60% RH and 40° C./75% RH for 7 weeks and the results are shown in Table 4.

[2] = Particle size distribution of Form CS2 (laser particle size analyzer); conditions: wet mode, Isopar G
Method: The particle size distribution data in the present disclosure were acquired by an S3500 laser particle size analyzer of Microtrac. Microtrac S3500 is equipped with an SDC (Sample Delivery Controller). The test is carried out in wet mode, and the dispersion medium is Isopar G. The parameters are as follows:
10-30 mg of Form CS2 and 10 mL of Isopar G (containing 0.2% lecithin) were mixed thoroughly and then transferred into the SDC. The measurement was started when the sample amount indicator is in appropriate position. The average particle diameter calculated by volume, the diameter at which 10% mass is comprised of smaller particles, the diameter at which 50% mass is comprised of smaller particles and the diameter at which 90% mass is comprised of smaller particles were obtained in particle size distribution test.
Explanation of the abbreviations used in the present invention is as follows: • MV: Average particle diameter calculated by volume. • D10: the size in microns below which 10 percent of the particles reside on a volume basis. • D50: the size in microns below which 50 percent of the particles reside on a volume basis, also known as the median diameter. • D90: the size in microns below which 90 percent of the particles reside on a volume basis.

[3] = Mechanical stability of Form CS2 (manual grinding, XRPD); conditions: ground manually for 5 minutes in a mortar
Method: Solid sample of Form CS2 was ground manually for 5 minutes in a mortar. The XRPD comparison pattern of Form CS2 before and after grinding is depicted in FIG. 8.

[4] = Dynamic solubility of Form CS2 in SGF, FeSSIF, FaSSIF and water; conditions: for solubility at 1 h / solubility at 4 h / solubility at 24 h: thermodynamic from solid
Method: High Performance Liquid Chromatography (HPLC) data for solubility test in example 5 of the present disclosure were collected from an Agilent 1100 with Diode Array Detector (DAD). The HPLC method parameters are as follows: • Column: L005# Waters Xbridge C18, 150×4.6 mm, 5 μm • Mobile Phase: A: 0.1% TFA in H2O • B: 0.1% TFA in Acetonitrile
• Flow rate: 1.0 ml/min • Injection Volume: 5 μl • Detection wavelength: 270 nm • Column Temperature: 40° C. • Diluent: MeOH/THF (v/v, 6/4)
Simulated gastrointestinal fluids such as SGF (Simulated gastric fluids), FaSSIF (Fasted state simulated intestinal fluids) and FeSSIF (Fed state simulated intestinal fluids) are biorelevant media. Solubility in such media is closer to that in human environment, which can reflect the effects of gastrointestinal environment on drug release better.
20 mg of Form CS2 was suspended into 1.5 mL of SGF, 1.5 mL of […], 1.5 mL of […] and 1.5 mL of water to get saturated solutions. After equilibrated for 1 h, 4 h and 24 h, concentrations (mg/mL) of the saturated solutions were measured by HPLC.

[5] = Hygroscopicity of Form CS2 by dynamic vapor sorption (DVS); conditions: for Weight gain under 80% RH: 25° C., hydrochloride
Method: Dynamic Vapor Sorption (DVS) is measured via a SMS (Surface Measurement Systems Ltd.) intrinsic DVS instrument. Its control software is DVS-Intrinsic control software, and its analysis software is DVS-Intrinsic Analysis software. Typical Parameters for DVS test are as follows: • Temperature: 25° C. • Gas and flow rate: N2, 200 mL/min • dm/dt: 0.002%/min • RH range: 0% RH to 95% RH
Dynamic vapor sorption (DVS) was applied to test hygroscopicity of Form CS2 with about 10 mg of sample. The DVS plot of Form CS2 is depicted in FIG. 9.

[6] = FaSSIF (fasted state simulated intestinal fluid), FaSSIF
[7] = FeSSIF (fed state simulated intestinal fluid), FeSSIF

SMILES: CC(C)Oc1ccc(-c2nc(-c3cccc4c3CC[C@@H]4NCCO)no2)cc1C#N [Form CS2, ozanimod hydrochloride]
- Crystalline form change after storage (XRPD) ([1]; 25° C./60% RH): no form change; also recorded: doesn't change
- Crystalline form change after storage (XRPD) ([1]; 40° C./75% RH): no form change; also recorded: doesn't change
- Crystalline form change after storage (XRPD) ([1]; 60° C./75% RH): no form change; also recorded: doesn't change
- D10 [2]: 7.6 μm
- D50 [2]: 44.90 μm
- D90 [2]: 149.4 μm
- Particle size distribution (in words) [2]: uniform
- MV (average particle diameter calculated by volume) ([2]; hydrochloride): about 64.22 μm
- MV (average particle diameter calculated by volume) ([2]; listed as CS2, hydrochloride): 64.22 μm
- Crystalline form change after grinding (XRPD) [3]: doesn't change
- solubility at 1 h [4, 6]: 3000 µg/mL
- solubility at 4 h ([4]; FaSSIF (fasted state simulated intestinal fluid), FaSSIF, 4 h): 3000 µg/mL
- solubility at 24 h [4, 6]: 3100 µg/mL
- solubility at 1 h [4, 7]: 300 µg/mL
- solubility at 4 h ([4]; FeSSIF (fed state simulated intestinal fluid), FeSSIF, 4 h): 280 µg/mL
- solubility at 24 h [4, 7]: 320 µg/mL
- solubility at 24 h ([4]; SGF (simulated gastric fluid), simulated gastric fluid, SGF): 240 µg/mL
- Solubility ([4]; SGF, 4 h): 0.21 mg/mL
- Solubility (in words) ([4]; in SGF, FeSSIF, FaSSIF and H2O): high
- solubility at 4 h ([4]; water, H2O, 4 h): 2200 µg/mL
- solubility at 24 h ([4]; water, H2O): 2400 µg/mL
- Weight gain under 80% RH [5]: 2.34%
- Weight gain under 80% RH ([5]; listed as Form CS2 of ozanimod hydrochloride): 2.34%
- Hygroscopicity (in words) ([5]; 80% RH): low
